According to patent publication US10898469B2, “Imidazolylamide derivative” (Sumitomo Dainippon Pharma Co., Ltd., priority 2016, dated 2021):

Assays:
Format in all cases: cell-based, human
[1] = test system: HCT-116 cells; test: Inhibition test for sphere-forming ability of cancer cells (Test Example 1), HCT-116; details: for IC50: HCT-116 cells, concentration for 50% inhibition of cell proliferation, read-out: IC50 (μmol/L) HCT-116 (Sphere IC50 value); for inhibitory effect on the sphere-forming ability of cancer cells: Test Example 1, summary in words, cell line not given (HCT-116, HT-29, FaDu tested)
In short: (§1)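 HCT-116, HT-29 and FaDu cells seeded at 350-800 cells/well on ultra-low attachment plates in serum-free DMEM/F12 with B27, 20 ng/mL EGF, 10 ng/mL bFGF and 5 μg/mL insulin. Compound given at 0.1% DMSO for 4 days; viable cells measured by CellTiter-Glo to give Sphere IC50 (μmol/L).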

[2] = test system: HT-29 cells; test: Inhibition test for sphere-forming ability of cancer cells (Test Example 1), HT-29; details: concentration for 50% inhibition of cell proliferation, read-out: IC50 (μmol/L) HT-29 (Sphere IC50 value)
In short: as §1

[3] = test system: FaDu cells; test: Inhibition test for sphere-forming ability of cancer cells (Test Example 1), FaDu; details: concentration for 50% inhibition of cell proliferation, read-out: IC50 (μmol/L) FaDu (Sphere IC50 value)
In short: as §1

[4] = test system: HCT-116 cells; test: Inhibition test for sphere-forming ability of cancer cells in the presence of BSA (Test Example 2), HCT-116; details: for IC50: HCT-116 cells, in the presence of 5% BSA, cultured 4 days; for inhibitory effect on the sphere-forming ability of cancer cells: Test Example 2, in the presence of 5% BSA, summary in words, cell line not given (HCT-116, HT-29, FaDu tested)
Procedure: (§2) Human colorectal cancer-derived HCT-116 cells, human colon-adenocarcinoma-derived HT-29 cells, and human pharyngeal cancer-derived FaDu cells were available from American Type Culture Collection (ATCC). HCT-116 cells and HT-29 cells were cultured at 37° C. under 5% CO2 using the McCoy's 5a medium containing 10% fetal bovine serum (FBS) and 1% penicillin/streptomycin, and FaDu cells were cultured at 37° C. under 5% CO2 using the MEM medium containing 10% FBS, 1% non-essential amino acid, 1% sodium pyruvate, 5% bovine serum albumin (BSA), and 1% penicillin/streptomycin. HCT-116 cells, HT-29 cells, and FaDu cells were seeded in a 384 Well Black Clear Bottom Ultra-Low Attachment Microplate (Corning Cat. No. 3827) in an amount of 350-800 cells/well using the DMEM/F12 medium containing 2% B27 supplement (GIBCO), 20 ng/mL epidermal growth factor (EGF) (peprotech), 10 ng/mL basic fibroblast growth factor (bFGF) (peprotech), 5 μg/mL insulin (Sigma), 5% bovine serum albumin (BSA), and 1% penicillin/streptomycin. Each test compound was added into each well to adjust the final concentration of DMSO to 0.1%, and the cells were cultured for 4 days. The number of viable cells in each well was then measured with CellTiter-Glo® Luminescent Cell Viability Assay (Promega) to calculate the concentration of each test compound for 50% inhibition of cell proliferation (Sphere IC50 value; μmol/L).
(§3) The experiment of Test Example 2 was performed for each compound of each Example.
(§4) The concentration of each test compound for 50% inhibition of cell proliferation (Sphere IC50 value; μmol/L) is shown in the following Table.

[5] = test system: HT-29 cells; test: Inhibition test for sphere-forming ability of cancer cells in the presence of BSA (Test Example 2), HT-29; details: in the presence of 5% BSA, cultured 4 days
Procedure: as §2, §3, §4

[6] = test system: FaDu cells; test: Inhibition test for sphere-forming ability of cancer cells in the presence of BSA (Test Example 2), FaDu; details: in the presence of 5% BSA, cultured 4 days
Procedure: as §2, §3, §4

Compound	IC50 [1] [µmol/L]	IC50 [2] [µmol/L]	IC50 [3] [µmol/L]	IC50 [4] [nM]	IC50 [5] [nM]	IC50 [6] [nM]	inhibitory effect on the sphere-forming ability of cancer cells [1]	inhibitory effect on the sphere-forming ability of cancer cells [4]	IC50 ([1]; Homo sapiens) [µmol/L]	IC50 ([2]; Homo sapiens) [µmol/L]	IC50 ([3]; Homo sapiens) [µmol/L]	IC50 ([4]; Homo sapiens, HCT-116, 96 h) [nM]	IC50 ([5]; Homo sapiens, 96 h) [nM]	IC50 ([6]; Homo sapiens, 96 h) [nM]
COc1ccc(C(=O)Nc2cn(Cc3ccc(F)c(F)c3F)cn2)cc1OC [Example 153]	0.66	0.73	0.82	6390	3200	660	–	–	–	–	–	–	–	–
O=C(/C=C/c1ccc(NCC(F)(F)F)nc1)Nc1cn(Cc2cccc(Cl)c2)cn1 [Example 15]	< 0.01	0.06	0.07	80	60	60	particularly potent inhibitory effect	particularly potent inhibitory effect	–	–	–	–	–	–
COc1ccc(C(=O)Nc2cn(Cc3cc(F)c(F)c(F)c3F)cn2)cc1OC [Example 156]	0.54	0.39	0.55	5070	590	420	–	–	–	–	–	–	–	–
COc1ccc(C(=O)Nc2cn(Cc3ccc(F)c(F)c3)cn2)cc1OC [Example 151, 3,4-dimethoxy-N-[1-(3,4-difluorobenzyl)-1H-imidazol-4-yl]benzamide]	–	–	–	–	–	–	particularly potent inhibitory effect	–	0.35	0.09	0.31	650	550	330
COc1ccc(C(=O)Nc2cn(Cc3cccc(F)c3F)cn2)cc1OC [Example 147]	0.78	0.83	3.12	6830	5970	910	–	–	–	–	–	–	–	–
CNc1ccc(/C=C/C(=O)Nc2cn(Cc3cccc(Cl)c3)cn2)cn1 [Example 16]	0.31	0.06	0.08	640	500	70	particularly potent inhibitory effect	particularly potent inhibitory effect	–	–	–	–	–	–
COc1ccc(C(=O)Nc2cn(Cc3ccccc3F)cn2)cc1OC [Example 144]	5.72	4.71	5.81	> 10000	5600	4320	–	–	–	–	–	–	–	–
COc1ccc(C(=O)Nc2cn(Cc3cc(F)cc(F)c3F)cn2)cc1OC [Example 154]	0.71	0.8	0.88	> 10000	890	600	–	–	–	–	–	–	–	–
COc1ccc(C(=O)Nc2cn(Cc3ccc(F)cc3F)cn2)cc1OC [Example 148]	5.2	4.74	8	> 10000	6780	5060	–	–	–	–	–	–	–	–
O=C(/C=C/C=C/c1ccccc1)Nc1cn(Cc2cccc(Cl)c2)cn1 [Example 46, (2E,4E)-N-(1-(3-Chlorobenzyl)-1H-imidazol-4-yl)-5-phenylpenta-2,4-dienamide]	–	–	–	–	–	–	–	–	2.62	0.62	0.79	> 10000	7600	4670
CCCC(=O)Nc1ccc(/C=C/C(=O)Nc2cn(Cc3cccc(Cl)c3)cn2)cc1 [Example 6, (E)-N-(4-(3-((1-(3-Chlorobenzyl)-1H-imidazol-4-yl)amino)-3-oxoprop-1-en-1-yl)phenyl)butylamide]	–	–	–	–	–	–	–	–	0.55	0.18	0.17	830	620	600
COc1ccc(C(=O)Nc2cn(Cc3c(F)cccc3F)cn2)cc1OC [Example 150]	0.69	3.56	6.21	> 10000	> 10000	7810	–	–	–	–	–	–	–	–
Cc1csc(NC(=O)c2cn(Cc3cccc(Cl)c3)cn2)n1 [Example 257]	0.8	0.8	0.71	7460	5990	4440	–	–	–	–	–	–	–	–
COc1ccc(C(=O)Nc2cn(Cc3ccc(F)cc3C(F)(F)F)cn2)cc1OC [Example 163]	3.56	1.51	1.73	> 10000	5460	5040	–	–	–	–	–	–	–	–
COc1ccc(/C=C/C(=O)Nc2cn(Cc3cc(F)c(F)c(F)c3)cn2)cc1OCCO [Example 32, (E)-3-(3-(2-Hydroxyethoxy)-4-methoxyphenyl)-N-(1-(3,4,5-trifluorobenzyl)-1H-imidazol-4-yl)acrylamide]	–	–	–	–	–	–	particularly potent inhibitory effect	particularly potent inhibitory effect	0.06	0.07	0.06	60	60	30
N#Cc1ccc(/C=C/C(=O)Nc2cn(Cc3cccc(Cl)c3)cn2)cc1OCCO [Example 35, (2E)-N-[1-(3-chlorobenzyl)-1H-imidazol-4-yl]-3-[4-cyano-3-(2-hydroxyethoxy)phenyl]prop-2-enamide]	–	–	–	–	–	–	particularly potent inhibitory effect	–	0.08	0.07	0.08	720	540	60
O=C(Nc1ccc2c(O)cccc2c1)c1cn(Cc2cccc(Cl)c2)cn1 [Example 256]	4.97	7.24	0.65	6170	6610	4410	–	–	–	–	–	–	–	–
COc1ccc(C(=O)Nc2cn(Cc3c(F)ccc(F)c3F)cn2)cc1OC [Example 155]	3.05	6.62	8.72	> 10000	> 10000	7030	–	–	–	–	–	–	–	–
Cl.O=C(/C=C/c1ccc(F)c(O)c1)Nc1cn(Cc2cccc(Cl)c2)cn1 [Example 38]	–	–	–	–	–	–	particularly potent inhibitory effect	–	0.15	0.89	< 0.01	720	580	30
CCNc1ccc(/C=C/C(=O)Nc2cn(Cc3cccc(Cl)c3)cn2)cn1 [Example 18]	0.07	0.02	0.06	580	50	30	particularly potent inhibitory effect	particularly potent inhibitory effect	–	–	–	–	–	–
Cl.O=C(/C=C/c1ccc(F)c(O)c1)Nc1cn(Cc2cccc(C(F)(F)F)c2)cn1 [Example 37, (E)-3-(4-Fluoro-3-hydroxyphenyl)-N-(1-(3-(trifluoromethyl)benzyl)-1H-imidazol-4-yl)acrylamide Hydrochloride]	–	–	–	–	–	–	particularly potent inhibitory effect	particularly potent inhibitory effect	0.25	0.93	< 0.01	550	100	< 10
COc1ccc(C(=O)Nc2cn(Cc3cc(F)ccc3F)cn2)cc1OC [Example 149]	4.77	0.75	0.89	7750	6180	2420	–	–	–	–	–	–	–	–
O=C(Nc1ccc(Cn2cccn2)cc1)c1cn(Cc2cccc(Cl)c2)cn1 [Example 260]	0.76	0.71	0.67	6810	4090	3090	–	–	–	–	–	–	–	–
